Data taken from ChEMBL document CHEMBL4613271, “Application of Atypical Acetyl-lysine Methyl Mimetics in the Development of Selective Inhibitors of the Bromodomain-Containing Protein 7 (BRD7)/Bromodomain-Containing Protein 9 (BRD9) Bromodomains” (J Med Chem, 2020).

How the values were obtained:
[1] = Chromatographic hydrophobicity index, logD of the compound at pH 7.4 by HPLC analysis; assay type: physicochemical; details: buffer
Peregrin = target: T1, Peregrin (Homo sapiens, UniProt P55201); assay: Binding affinity to human partial length BRPF1 (E627 to G740 residues) expressed in bacterial expression system by BROMOscan assay
T1 sequence (P55201 whole entry): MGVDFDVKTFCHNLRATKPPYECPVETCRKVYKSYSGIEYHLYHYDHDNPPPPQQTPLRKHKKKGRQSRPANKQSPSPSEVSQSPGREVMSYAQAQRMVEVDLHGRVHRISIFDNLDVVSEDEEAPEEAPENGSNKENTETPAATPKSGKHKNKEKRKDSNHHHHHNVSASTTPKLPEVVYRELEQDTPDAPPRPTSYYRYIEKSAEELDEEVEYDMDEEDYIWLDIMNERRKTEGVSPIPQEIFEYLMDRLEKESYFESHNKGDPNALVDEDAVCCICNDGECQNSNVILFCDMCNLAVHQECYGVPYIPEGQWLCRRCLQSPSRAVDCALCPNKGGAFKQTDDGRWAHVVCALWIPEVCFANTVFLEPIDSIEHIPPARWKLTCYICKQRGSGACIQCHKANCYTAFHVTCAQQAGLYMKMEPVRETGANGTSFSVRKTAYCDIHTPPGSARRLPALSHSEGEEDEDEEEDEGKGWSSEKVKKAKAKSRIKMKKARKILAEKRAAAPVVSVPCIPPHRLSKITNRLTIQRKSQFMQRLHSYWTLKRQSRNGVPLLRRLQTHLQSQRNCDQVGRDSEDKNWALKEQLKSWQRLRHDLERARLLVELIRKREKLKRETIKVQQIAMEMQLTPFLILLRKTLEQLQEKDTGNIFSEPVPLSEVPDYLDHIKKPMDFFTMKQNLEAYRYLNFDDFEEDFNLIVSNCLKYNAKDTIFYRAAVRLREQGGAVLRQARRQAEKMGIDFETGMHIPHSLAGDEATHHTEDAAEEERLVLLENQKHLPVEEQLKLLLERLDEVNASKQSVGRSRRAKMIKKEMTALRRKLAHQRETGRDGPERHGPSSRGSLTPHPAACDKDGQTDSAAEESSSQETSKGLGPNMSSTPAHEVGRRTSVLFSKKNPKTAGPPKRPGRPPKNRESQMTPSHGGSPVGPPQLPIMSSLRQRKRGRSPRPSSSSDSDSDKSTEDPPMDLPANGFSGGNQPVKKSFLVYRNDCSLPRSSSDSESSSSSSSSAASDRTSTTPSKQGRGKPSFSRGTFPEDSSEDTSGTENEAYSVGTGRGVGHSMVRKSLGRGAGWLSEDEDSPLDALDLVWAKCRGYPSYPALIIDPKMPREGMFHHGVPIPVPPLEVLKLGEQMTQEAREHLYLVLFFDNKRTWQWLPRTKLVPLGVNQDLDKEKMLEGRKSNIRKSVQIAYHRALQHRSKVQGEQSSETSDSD

[2] = target: T2, Bromodomain-containing protein 4 (Homo sapiens, UniProt O60885); assay: Binding affinity to human partial length BRD4 (1) (N44 to E168 residues) expressed in bacterial expression system by BROMOscan assay
[3] = target: T3, Bromodomain-containing protein 9 (Homo sapiens, UniProt Q9H8M2)
T3 sequence (Q9H8M2 whole entry): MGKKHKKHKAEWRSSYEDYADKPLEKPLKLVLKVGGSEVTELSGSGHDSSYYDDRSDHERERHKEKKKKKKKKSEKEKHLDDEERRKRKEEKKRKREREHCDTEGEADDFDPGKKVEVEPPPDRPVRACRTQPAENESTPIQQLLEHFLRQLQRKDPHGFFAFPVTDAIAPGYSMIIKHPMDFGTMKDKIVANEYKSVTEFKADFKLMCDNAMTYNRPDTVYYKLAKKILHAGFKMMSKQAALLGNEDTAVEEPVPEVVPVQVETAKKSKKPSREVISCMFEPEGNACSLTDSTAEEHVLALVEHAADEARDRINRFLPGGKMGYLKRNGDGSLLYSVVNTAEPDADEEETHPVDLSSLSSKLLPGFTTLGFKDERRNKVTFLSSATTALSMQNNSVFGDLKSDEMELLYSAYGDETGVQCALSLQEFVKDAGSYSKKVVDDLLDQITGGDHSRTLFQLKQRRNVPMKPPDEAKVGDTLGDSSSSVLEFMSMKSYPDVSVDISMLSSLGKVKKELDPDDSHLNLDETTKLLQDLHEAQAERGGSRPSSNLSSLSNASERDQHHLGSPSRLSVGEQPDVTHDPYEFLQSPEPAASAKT
Description: Binding affinity to human partial length BRD9 (R130 to V259 residues) expressed in bacterial expression system by BROMOscan assay

[4] = target: T3, Bromodomain-containing protein 9; assay: Binding affinity to BRD9 (unknown origin) N-terminal bromodomain by TR-FRET assay
[5] = target: T2, Bromodomain-containing protein 4; assay: Binding affinity to BRD4 (1) (unknown origin) N-terminal bromodomain by TR-FRET assay
Homo sapiens = organism: Homo sapiens; assay: Selectivity index, ratio of IC50 for binding affinity to BRD4 (1) (unknown origin) N-terminal bromodomain to IC50 for binding affinity to BRD9 (unknown origin) N-terminal bromodomain
[6] = target: T4, Bromodomain-containing protein 9 (Homo sapiens) (UniProt Q9H8M2); assay: Inhibition of human partial length BRD9 (R130 to V259 residues) expressed in bacterial expression system at 10 uM by BROMOscan assay relative to control
T4 sequence (whole entry): T3 sequence (Q9H8M2 whole entry)

[7] = target: T5, Bromodomain-containing protein 7 (Homo sapiens, UniProt Q9NPI1); assay: Binding affinity to BRD7 (unknown origin)
T5 sequence (Q9NPI1 whole entry): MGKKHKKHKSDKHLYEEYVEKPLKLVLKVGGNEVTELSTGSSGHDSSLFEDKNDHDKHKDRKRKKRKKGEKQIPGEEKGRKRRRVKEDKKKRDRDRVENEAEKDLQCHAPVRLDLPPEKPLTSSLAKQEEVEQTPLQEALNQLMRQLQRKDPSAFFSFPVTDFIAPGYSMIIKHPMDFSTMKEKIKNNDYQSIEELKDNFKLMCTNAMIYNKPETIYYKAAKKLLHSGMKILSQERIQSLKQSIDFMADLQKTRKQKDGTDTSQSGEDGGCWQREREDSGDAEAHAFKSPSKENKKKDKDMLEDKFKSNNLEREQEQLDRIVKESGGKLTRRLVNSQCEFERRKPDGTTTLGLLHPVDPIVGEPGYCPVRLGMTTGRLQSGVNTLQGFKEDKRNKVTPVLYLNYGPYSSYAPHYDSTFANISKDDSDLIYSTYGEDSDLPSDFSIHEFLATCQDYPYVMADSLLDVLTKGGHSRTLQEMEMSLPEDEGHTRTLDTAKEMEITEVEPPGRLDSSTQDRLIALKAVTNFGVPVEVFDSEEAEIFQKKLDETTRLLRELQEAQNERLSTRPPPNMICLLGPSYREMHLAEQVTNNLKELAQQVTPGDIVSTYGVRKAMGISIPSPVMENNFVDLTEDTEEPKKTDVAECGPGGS

[8] = Solubility of compound by CLND method; assay type: physicochemical
[9] = Permeability by PAMPA; assay type: ADME; details: read-out: permeability

Row | Structure (SMILES) | chromatographic logD [1] | Ki (Peregrin) | Ki [2] | Ki [3] | IC50 [4] | IC50 [5] | fold selectivity (Homo sapiens) | also measured
1 | C=C[C@H](C)c1c(NCc2ccccc2N2CCN(C)CC2)cnn(C)c1=O | 3.1 | > 10 µM | > 10 µM | 0.316 µM | – | – | – | –
2 | CCCCn1cc(-c2cccc(C(F)(F)F)c2)c2sc(C(=N)NC3CCS(=O)(=O)CC3)cc2c1=O | – | – | – | 0.01 µM | – | – | – | –
3 | Cc1c(NCc2ccccc2-c2ccccc2)cnn(C)c1=O | 4.8 | – | – | – | 0.1 µM | 12.6 µM | 125 | –
4 | CCCCc1c(Nc2cccc3c2CCN(C)C3)cnn(C)c1=O | – | – | – | 0.0794 µM | – | > 50.1 µM | – | –
5 | Cc1c(NCc2ccccc2N2CCNCC2)cnn(C)c1=O | 0.7 | – | – | – | 0.2 µM | > 50.1 µM | > 250 | –
6 | CCOC(=O)Nc1cc(-c2ccc(C)c(NS(C)(=O)=O)c2)nn2c(C)nnc12 | – | – | – | – | – | – | – | inhibition [6]: 100%
7 | Cc1c(Nc2cccc3c2CCN(C)C3)cnn(C)c1=O | – | – | – | 0.158 µM | – | 39.8 µM | – | –
8 | C=CCc1c(NCc2ccccc2N2CCN(C)CC2)cnn(C)c1=O | 2.5 | > 10 µM | > 10 µM | 0.1 µM | – | – | – | –
9 | C/C=C/Cc1c(NCc2ccccc2N2CCN(C)CC2)cnn(C)c1=O | 3.1 | > 10 µM | 3.98 µM | 0.0398 µM | – | – | – | –
10 | Cc1c(NCc2ccccc2N2CCN(CCCN)CC2)cnn(C)c1=O | 1.2 | – | – | – | 0.0631 µM | 15.8 µM | 250 | –
11 | Cc1c(NCc2ccccc2N2CCOCC2)cnn(C)c1=O | 3.2 | – | – | – | 0.1 µM | 20 µM | 200 | –
12 | Cc1cccc(CNc2cnn(C)c(=O)c2Cl)c1 | 4 | – | – | – | 2.51 µM | 20 µM | 8 | –
13 | CCCc1c(NCc2ccccc2N2CCN(C)CC2)cnn(C)c1=O | 2.8 | > 10 µM | > 10 µM | 0.126 µM | – | – | – | –
14 | CCCCCc1c(NCc2ccccc2N2CCN(C)CC2)cnn(C)c1=O | 4.2 | > 10 µM | 1.58 µM | 0.158 µM | – | – | – | –
15 | CNc1cnn(C)c(=O)c1Cl | – | – | – | – | 25.1 µM | 126 µM | – | –
16 | CCc1c(NCc2ccccc2N2CCN(C)CC2)cnn(C)c1=O | 2.3 | 6.31 µM | 7.94 µM | 0.0794 µM | – | – | – | –
17 | COc1cc(-c2cn(C)c(=O)c3cnccc23)c(OC)cc1CN(C)CC(=O)NCCOCCOCCNc1cccc2c1C(=O)N(C1CCC(=O)NC1=O)C2=O (stereo not given) | – | – | – | – | – | – | – | IC50 [7]: 0.1 µM
18 | Cc1c(NCc2ccccc2)cnn(C)c1=O | 2.9 | – | – | – | 1.26 µM | 25.1 µM | 20 | –
19 | CN1CCN(c2ccccc2CNc2cnn(C)c(=O)c2)CC1 | 1.1 | – | – | – | – | – | – | solubility kinetic [8]: ≥ 150 µg/mL; Papp [9]: 14 ×10⁻⁶ cm/s; IC50 [2]: > 50.1 µM; IC50 [3]: > 50.1 µM
20 | CC(C)c1c(NCc2ccccc2N2CCN(C)CC2)cnn(C)c1=O | 3.1 | 7.94 µM | > 10 µM | 0.316 µM | – | – | – | –
21 | Cc1ccccc1CNc1cnn(C)c(=O)c1C | 3.6 | – | – | – | 0.398 µM | 25.1 µM | 63 | –
22 | CCCCc1nnc2c(NC(=O)OCC)cc(-c3ccc(C)c(NS(C)(=O)=O)c3)nn12 | – | – | – | – | – | – | – | inhibition [6]: > 95%
23 | Cc1ccc(CNc2cnn(C)c(=O)c2Cl)cc1 | 4 | – | – | – | 0.794 µM | 12.6 µM | 16 | –
24 | C/C=C\Cc1c(NCc2ccccc2N2CCN(C)CC2)cnn(C)c1=O | 3 | > 10 µM | > 10 µM | 0.251 µM | – | – | – | –
25 | C=C[C@@H](C)c1c(NCc2ccccc2N2CCN(C)CC2)cnn(C)c1=O | 3.1 | > 10 µM | > 10 µM | 0.251 µM | – | – | – | –
26 | C=CCCc1c(NCc2ccccc2N2CCN(C)CC2)cnn(C)c1=O | 3.2 | > 10 µM | > 10 µM | 0.398 µM | – | – | – | –
27 | Cc1c(NCc2ccccc2N2CCCOCC2)cnn(C)c1=O | 3.5 | – | – | – | 0.1 µM | 12.6 µM | 125 | –
28 | CC/C=C/c1c(NCc2ccccc2N2CCN(C)CC2)cnn(C)c1=O | 3.5 | > 10 µM | > 10 µM | > 10 µM | – | – | – | –
